Key:
Format in all cases: functional
PC-3 = experiment: Cytotoxicity against Homo sapiens (human) PC3 cells assessed as cell growth at 10 uM after 48 hr by SRB assay relative to control; details: PC-3, 48 h, read-out: Activity
A498 [1] = experiment: Cytotoxicity against Homo sapiens (human) A498 cells assessed as cell growth at 10 uM after 48 hr by SRB assay relative to control; details: A498, 48 h, read-out: Activity
UO-31 = experiment: Cytotoxicity against Homo sapiens (human) UO31 cells after 48 hr by SRB assay; details: UO-31, 48 h
ACHN = experiment: Cytotoxicity against Homo sapiens (human) ACHN cells after 48 hr by SRB assay
786-0 = experiment: Cytotoxicity against Homo sapiens (human) 786-0 cells after 48 hr by SRB assay; details: 786-0, 48 h
LOX IMVI = experiment: Cytotoxicity against Homo sapiens (human) LOXIMVI cells after 48 hr by SRB assay
HCT-116 = experiment: Cytotoxicity against Homo sapiens (human) HCT116 cells after 48 hr by SRB assay; details: HCT-116, 48 h
SF-295 = experiment: Cytotoxicity against Homo sapiens (human) SF295 cells after 48 hr by SRB assay; details: SF-295, 48 h
A549 = experiment: Cytotoxicity against Homo sapiens (human) A549 cells after 48 hr by SRB assay; details: A549, 48 h
A498 [2] = experiment: Cytotoxicity against Homo sapiens (human) A498 cells after 48 hr by SRB assay; details: A498, 48 h
HOP-92 [3] = experiment: Cytotoxicity against Homo sapiens (human) HOP92 cells assessed as cell growth at 10 uM after 48 hr by SRB assay relative to control; details: HOP-92, 48 h, read-out: Activity
MCF7 [4] = experiment: Cytotoxicity against Homo sapiens (human) MCF7 cells assessed as cell growth at 10 uM after 48 hr by SRB assay relative to control; details: MCF7, 48 h, read-out: Activity
RXF 393 = experiment: Cytotoxicity against Homo sapiens (human) RXF393 cells assessed as cell growth at 10 uM after 48 hr by SRB assay relative to control; details: RXF 393, 48 h, read-out: Activity
OVCAR-8 = experiment: Cytotoxicity against Homo sapiens (human) OVCAR8 cells assessed as cell growth at 10 uM after 48 hr by SRB assay relative to control; details: OVCAR-8, 48 h, read-out: Activity
UACC-62 = experiment: Cytotoxicity against Homo sapiens (human) UACC62 cells assessed as cell growth at 10 uM after 48 hr by SRB assay relative to control; details: UACC-62, 48 h, read-out: Activity
UACC-257 = experiment: Cytotoxicity against Homo sapiens (human) UACC257 cells assessed as cell growth at 10 uM after 48 hr by SRB assay relative to control; details: UACC-257, 48 h, read-out: Activity
SK-MEL-5 = experiment: Cytotoxicity against Homo sapiens (human) SK-MEL-5 cells assessed as cell growth at 10 uM after 48 hr by SRB assay relative to control; details: SK-MEL-5, 48 h, read-out: Activity
SK-MEL-28 = experiment: Cytotoxicity against Homo sapiens (human) SK-MEL-28 cells assessed as cell growth at 10 uM after 48 hr by SRB assay relative to control; details: SK-MEL-28, 48 h, read-out: Activity
Malme-3M [5] = experiment: Cytotoxicity against Homo sapiens (human) MALME-3M cells assessed as cell growth at 10 uM after 48 hr by SRB assay relative to control; details: read-out: Activity
HOP-62 = experiment: Cytotoxicity against Homo sapiens (human) HOP62 cells assessed as cell growth at 10 uM after 48 hr by SRB assay relative to control; details: HOP-62, 48 h, read-out: Activity
OVCAR-3 = experiment: Cytotoxicity against Homo sapiens (human) OVCAR3 cells after 48 hr by SRB assay; details: OVCAR-3, 48 h
Malme-3M [6] = experiment: Cytotoxicity against Homo sapiens (human) MALME-3M cells after 48 hr by SRB assay
M14 = experiment: Cytotoxicity against Homo sapiens (human) M14 cells after 48 hr by SRB assay; details: M14, 48 h
SF-268 = experiment: Cytotoxicity against Homo sapiens (human) SF268 cells after 48 hr by SRB assay; details: SF-268, 48 h
HOP-92 [7] = experiment: Cytotoxicity against Homo sapiens (human) HOP92 cells after 48 hr by SRB assay; details: HOP-92, 48 h
MCF7 [8] = experiment: Cytotoxicity against Homo sapiens (human) MCF7 cells after 48 hr by SRB assay; details: MCF7, 48 h
TK-10 = experiment: Cytotoxicity against Homo sapiens (human) TK10 cells after 48 hr by SRB assay; details: TK-10, 48 h
HT-29 = experiment: Cytotoxicity against Homo sapiens (human) HT-29 cells assessed as cell growth at 10 uM after 48 hr by SRB assay relative to control; details: HT-29, 48 h, read-out: Activity
HCT-15 = experiment: Cytotoxicity against Homo sapiens (human) HCT15 cells assessed as cell growth at 10 uM after 48 hr by SRB assay relative to control; details: HCT-15, 48 h, read-out: Activity
NCI-H522 = experiment: Cytotoxicity against Homo sapiens (human) NCI-H522 cells assessed as cell growth at 10 uM after 48 hr by SRB assay relative to control; details: NCI-H522, 48 h, read-out: Activity
U-251 = experiment: Cytotoxicity against Homo sapiens (human) U251 cells assessed as cell growth at 10 uM after 48 hr by SRB assay relative to control; details: U-251, 48 h, read-out: Activity
SNB-75 = experiment: Cytotoxicity against Homo sapiens (human) SNB75 cells assessed as cell growth at 10 uM after 48 hr by SRB assay relative to control; details: SNB-75, 48 h, read-out: Activity
[9] = read-out: pLC50 (the source's name) (converted)

Molecule `COc1ccccc1CNC(=O)CSc1nc2ccccc2c2nc(=O)c(-c3ccccc3)nn12` has a growth at 10 µM (PC-3) of 35.6%, a growth at 10 µM (A498 [1]) of -23.1% and a GI50 (UO-31) of 1.86 µM. For the same molecule, the LC50 (UO-31) was > 100 µM, the TGI (UO-31; read-out: pTGI) was > 100 µM and the GI50 (ACHN) was 1.86 µM. The CC50 (ACHN; [9]) was > 100 µM, the TGI (ACHN; read-out: pTGI) was > 100 µM and the GI50 (786-0) was 2.24 µM. For the same molecule, the CC50 (786-0; [9]) was > 100 µM, the TGI (786-0; read-out: pTGI) was 5.25 µM and the GI50 (LOX IMVI) was 2.09 µM. The CC50 (LOX IMVI; [9]) was > 100 µM, the TGI (LOX IMVI; read-out: pTGI) was > 100 µM and the GI50 (HCT-116) was 2.69 µM. The CC50 (HCT-116; [9]) was > 100 µM, the TGI (HCT-116; read-out: pTGI) was > 100 µM and the GI50 (SF-295) was 2.45 µM. The CC50 (SF-295; [9]) was > 100 µM, the TGI (SF-295; read-out: pTGI (converted)) was 8.51 µM and the GI50 (A549) was 2.34 µM. The CC50 (A549; [9]) was > 100 µM, the TGI (A549; read-out: pTGI) was > 100 µM and the GI50 (A498 [2]) was 1.17 µM. The LC50 (A498 [2]) was > 100 µM, the TGI (A498 [2]; read-out: pTGI (converted)) was 4.07 µM and the growth at 10 µM (HOP-92 [3]) was 26.2%.
In the case of `COc1ccc(-c2nn3c(SCC(=O)Nc4ccccc4Cl)nc4ccccc4c3nc2=O)cc1`, the growth at 10 µM (MCF7 [4]) was 32.8%, the growth at 10 µM (RXF 393) was 37.4% and the growth at 10 µM (OVCAR-8) was 31.5%. It also gave a growth at 10 µM (UACC-62) of 18.1%, a growth at 10 µM (UACC-257) of -17.1% and a growth at 10 µM (SK-MEL-5) of 41.4%. The growth at 10 µM (SK-MEL-28) was -5.98%, the growth at 10 µM (Malme-3M [5]) was 18.8% and the growth at 10 µM (HOP-62) was 30.3%. The GI50 (OVCAR-3) was 1.38 µM, the CC50 (OVCAR-3; [9]) was > 100 µM and the TGI (OVCAR-3; read-out: pTGI (converted)) was 3.31 µM. The GI50 (Malme-3M [6]) was 1.86 µM, the CC50 (Malme-3M [6]; [9]) was > 100 µM and the TGI (Malme-3M [6]; read-out: pTGI (converted)) was 7.94 µM. For the same molecule, the GI50 (M14) was 2.63 µM, the CC50 (M14; [9]) was > 100 µM and the TGI (M14; read-out: pTGI (converted)) was 100 µM. The GI50 (SF-268) was 2.95 µM, the CC50 (SF-268; [9]) was 72.4 µM and the TGI (SF-268; read-out: pTGI (converted)) was 13.8 µM. The GI50 (HOP-92 [7]) was 1.82 µM, the CC50 (HOP-92 [7]; [9]) was 42.7 µM and the TGI (HOP-92 [7]; read-out: pTGI (converted)) was 9.12 µM. For the same molecule, the GI50 (MCF7 [8]) was 2.34 µM, the CC50 (MCF7 [8]; [9]) was > 100 µM and the TGI (MCF7 [8]; read-out: pTGI) was > 100 µM. For the same molecule, the GI50 (TK-10) was 2.19 µM, the CC50 (TK-10; [9]) was 33.9 µM and the TGI (TK-10; read-out: pTGI (converted)) was 7.24 µM. It also gave a growth at 10 µM (HT-29) of 5.16%, a growth at 10 µM (HCT-15) of 71.9% and a growth at 10 µM (NCI-H522) of 36.5%. For the same molecule, the growth at 10 µM (U-251) was -22.6% and the growth at 10 µM (SNB-75) was 55.6%.

Reference: ChEMBL document CHEMBL3045943, “Novel N-aryl(alkaryl)-2-[(3-R-2-oxo-2H-[1,2,4]triazino[2,3-c]quinazoline-6-yl)thio]acetamides: synthesis, cytotoxicity, anticancer activity, COMPARE analysis and docking” (2013)
